From patent US20190284136A1, “INDOLINE DERIVATIVES” (ViiV HEALTHCARE UK LIMITED, priority 2016, published 2019)

Tested on: HIV
Assay: Table 1 IC50 of the examples (assay method not given; patent concerns inhibiting HIV replication)
Type: cell-based
Conditions: Human immunodeficiency virus 1

| SMILES | IC50 [nM] |
| --- | --- |
| Cc1cc2c(c(-c3cc(F)c4c(c3C)CCCO4)c1[C@H](OC(C)(C)C)C(=O)O)CCN2C(=O)c1cc(Cl)ccc1F (atropisomer, axis not shown) [Example 145, (S)-2-(tert-Butoxy)-2-((R)-1-(5-chloro-2-fluorobenzoyl)-4-(8-fluoro-5-methylchroman-6-yl)-6-methylindolin-5-yl)acetic acid] | 14 |
| Cc1ccc(C(=O)N2CCc3c2cc(C)c([C@H](OC(C)(C)C)C(=O)O)c3-c2cc(F)c3c(c2C)CCCO3)cc1C(F)(F)F (atropisomer, axis not shown) [Example 146, (S)-2-(tert-Butoxy)-2-((R)-4-(8-fluoro-5-methylchroman-6-yl)-6-methyl-1-(4-methyl-3-(trifluoromethyl)benzoyl)indolin-5-yl)acetic acid] | 5 |
| Cc1cc2c(c(-c3cc(F)c4c(c3C)CCCO4)c1[C@H](OC(C)(C)C)C(=O)O)CCN2C(=O)c1cc(Cl)cc(C(F)(F)F)c1 (atropisomer, axis not shown) [Example 147, (S)-2-(tert-Butoxy)-2-((R)-1-(3-chloro-5-(trifluoromethyl)benzoyl)-4-(8-fluoro-5-methylchroman-6-yl)-6-methylindolin-5-yl)acetic acid] | 17 |
| Cc1cc2c(c(-c3cc(F)c4c(c3C)CCCO4)c1[C@H](OC(C)(C)C)C(=O)O)CCN2C(=O)c1ccc(Cl)c(C(F)(F)F)c1 (atropisomer, axis not shown) [Example 148, (S)-2-(tert-Butoxy)-2-((R)-1-(4-chloro-3-(trifluoromethyl)benzoyl)-4-(8-fluoro-5-methylchroman-6-yl)-6-methylindolin-5-yl)acetic acid] | 8 |
| Cc1ccc(Cl)cc1C(=O)N1CCc2c1cc(C)c([C@H](OC(C)(C)C)C(=O)O)c2-c1cc(F)c2c(c1C)CCCO2 (atropisomer, axis not shown) [Example 149] | 5 |
| Cc1cc2c(c(-c3cc(F)c4c(c3C)CCCO4)c1[C@H](OC(C)(C)C)C(=O)O)CCN2C(=O)c1cc(F)ccc1Cl (atropisomer, axis not shown) [Example 150, (S)-2-(tert-Butoxy)-2-((R)-1-(2-chloro-5-fluorobenzoyl)-4-(8-fluoro-5-methylchroman-6-yl)-6-methylindolin-5-yl)acetic acid] | 8 |
| COc1ccc(C(=O)N2CCc3c2cc(C)c([C@H](OC(C)(C)C)C(=O)O)c3-c2cc(F)c3c(c2C)CCCO3)c(C(F)(F)F)c1 (atropisomer, axis not shown) [Example 152, (S)-2-(tert-Butoxy)-2-((R)-4-(8-fluoro-5-methylchroman-6-yl)-1-(4-methoxy-2-(trifluoromethyl)benzoyl)-6-methylindolin-5-yl)acetic acid] | 13 |
| CNC(=O)c1cccc(C(=O)N2CCc3c2cc(C)c([C@H](OC(C)(C)C)C(=O)O)c3-c2cc(F)c3c(c2C)CCCO3)c1 (atropisomer, axis not shown) [Example 153, (S)-2-(tert-Butoxy)-2-((R)-4-(8-fluoro-5-methylchroman-6-yl)-6-methyl-1-(3-(methylcarbamoyl)benzoyl)indolin-5-yl)acetic acid] | 125 |
| Cc1cc2c(c(-c3cc(F)c4c(c3C)CCCO4)c1[C@H](OC(C)(C)C)C(=O)O)CCN2C(=O)c1cc(C(F)(F)F)ccc1Cl (atropisomer, axis not shown) [Example 154, (S)-2-(tert-Butoxy)-2-((R)-1-(2-chloro-5-(trifluoromethyl)benzoyl)-4-(8-fluoro-5-methylchroman-6-yl)-6-methylindolin-5-yl)acetic acid] | 52 |
| Cc1cc2c(c(-c3cc(F)c4c(c3C)CCCO4)c1[C@H](OC(C)(C)C)C(=O)O)CCN2C(=O)c1cc(C(F)(F)F)ccc1F (atropisomer, axis not shown) [Example 155, (S)-2-(tert-Butoxy)-2-((R)-1-(2-fluoro-5-(trifluoromethyl)benzoyl)-4-(8-fluoro-5-methylchroman-6-yl)-6-methylindolin-5-yl)acetic acid] | 72 |
| Cc1cc2c(c(-c3cc(F)c4c(c3C)CCCO4)c1[C@H](OC(C)(C)C)C(=O)O)CCN2C(=O)c1ccc(Cl)cc1C(F)(F)F (atropisomer, axis not shown) [Example 156, (S)-2-(tert-Butoxy)-2-((R)-1-(4-chloro-2-(trifluoromethyl)benzoyl)-4-(8-fluoro-5-methylchroman-6-yl)-6-methylindolin-5-yl)acetic acid] | 5 |
| COc1ccc(C(=O)N2CCc3c2cc(C)c([C@H](OC(C)(C)C)C(=O)O)c3-c2cc(F)c3c(c2C)CCCO3)cc1C(F)(F)F (atropisomer, axis not shown) [Example 157, (S)-2-(tert-Butoxy)-2-((R)-4-(8-fluoro-5-methylchroman-6-yl)-1-(4-methoxy-3-(trifluoromethyl)benzoyl)-6-methylindolin-5-yl)acetic acid] | 6 |
| COc1cc(C)ccc1C(=O)N1CCc2c1cc(C)c([C@H](OC(C)(C)C)C(=O)O)c2-c1cc(F)c2c(c1C)CCCO2 (atropisomer, axis not shown) [Example 159, (S)-2-(tert-Butoxy)-2-((R)-4-(8-fluoro-5-methylchroman-6-yl)-1-(2-methoxy-4-methylbenzoyl)-6-methylindolin-5-yl)acetic acid] | 4 |
| Cc1cc2c(c(-c3cc(F)c4c(c3C)CCCO4)c1[C@H](OC(C)(C)C)C(=O)O)CCN2C(=O)c1cccc(C(F)(F)F)c1F (atropisomer, axis not shown) [Example 160, (S)-2-(tert-Butoxy)-2-((R)-1-(2-fluoro-3-(trifluoromethyl)benzoyl)-4-(8-fluoro-5-methylchroman-6-yl)-6-methylindolin-5-yl)acetic acid] | 14 |
| Cc1cc2c(c(-c3cc(F)c4c(c3C)CCCO4)c1[C@H](OC(C)(C)C)C(=O)O)CCN2C(=O)C1CCC1 (atropisomer, axis not shown) [Example 161, (S)-2-(tert-Butoxy)-2-((R)-1-(cyclobutanecarbonyl)-4-(8-fluoro-5-methylchroman-6-yl)-6-methylindolin-5-yl)acetic acid] | 81 |
| COc1cccc(C(=O)N2CCc3c2cc(C)c([C@H](OC(C)(C)C)C(=O)O)c3-c2cc(F)c3c(c2C)CCCO3)c1 (atropisomer, axis not shown) [Example 162, (S)-2-(tert-Butoxy)-2-((R)-4-(8-fluoro-5-methylchroman-6-yl)-1-(3-methoxybenzoyl)-6-methylindolin-5-yl)acetic acid] | 7 |
| COc1cc(C(F)(F)F)ccc1C(=O)N1CCc2c1cc(C)c([C@H](OC(C)(C)C)C(=O)O)c2-c1cc(F)c2c(c1C)CCCO2 (atropisomer, axis not shown) [Example 163, (S)-2-(tert-Butoxy)-2-((R)-4-(8-fluoro-5-methylchroman-6-yl)-1-(2-methoxy-4-(trifluoromethyl)benzoyl)-6-methylindolin-5-yl)acetic acid] | 9 |
| Cc1cc2c(c(-c3cc(F)c4c(c3C)CCCO4)c1[C@H](OC(C)(C)C)C(=O)O)CCN2C(=O)c1cccc(C(=O)N2CCCCC2)c1 (atropisomer, axis not shown) [Example 164, (S)-2-(tert-Butoxy)-2-((R)-4-(8-fluoro-5-methylchroman-6-yl)-6-methyl-1-(3-(piperidine-1-carbonyl)benzoyl)indolin-5-yl)acetic acid] | 176 |
